In general, melting point refers to the temperature of the solid-liquid transition.

In series [1] the test system is maize. The series can be described thus: Post-emergence test (Example B), crop plant tolerance, maize. The class given is in vivo. The conditions noted are these: rated after three weeks. As to the method: (§1) • Solvent: 5 parts by weight of acetone • Emulsifier: 1 part by weight of alkilaryl polyglycol ether
(§2) To produce a suitable preparation of active compound, 1 part by weight of active compound is mixed with the stated amount of solvent, the stated amount of emulsifier is added and the concentrate is diluted with water to the desired concentration.
(§3) Test plants of a height of 5-15 cm are sprayed with the preparation of active compound such that the particular amounts of active compound desired are applied per unit area. The concentration of the spray liquor is chosen such that the particular amounts of active compound desired are applied in 1000 l of water/ha.
(§4) After three weeks, the degree of damage to the plants is rated in % damage in comparison to the development of the untreated control.
(§5) The figures denote: • 0%=no effect (like untreated control) • 100%=total destruction

Another series deals with wheat. As to the kind of experiment: Post-emergence test (Example B), crop plant tolerance, wheat. The conditions noted are these: rated after three weeks. The class given is in vivo. As to the method:
as §1, §2, §3, §4, §5

The subject of series [2] is weeds. As to the kind of experiment: Post-emergence test (Example B), herbicidal activity. The class given is in vivo. The following applies: test plants 5-15 cm sprayed, rated after three weeks. The protocol: as §1, §2, §3, §4, §5
Series [3] can be described thus: logP by reversed-phase HPLC (EEC Directive 79/831 Annex V.A8), acidic range. The conditions noted are these: reversed-phase column (C 18), 43° C.; a) acidic range: 0.1% aqueous phosphoric acid, acetonitrile, linear gradient 10% to 90%. The class given is physicochemical. The protocol: The logP values given in Table 1 were determined in accordance with EEC Directive 79/831 Annex V.A8 by HPLC (High Performance Liquid Chromatography) using a reversed-phase column (C 18). Temperature: 43° C. • (a) Mobile phases for the determination in the acidic range: 0.1% aqueous phosphoric acid, acetonitrile; linear gradient from 10% acetonitrile to 90% acetonitrile—the corresponding data are labelled ^a) in Table 1. • (b) Mobile phases for the determination in the neutral range: 0.01 molar aqueous phosphate buffer solution, acetonitrile; linear gradient from 10% acetonitrile to 90% acetonitrile—corresponding data are labelled ^b) in Table 1.
Calibration was carried out using unbranched alkan-2-ones (having 3 to 16 carbon atoms), with known logP values (determination of the logP values by the retention times using linear interpolation between two successive alkanones).

For series [4], the system named is maize. As to the kind of experiment: Pre-emergence test (Example A), crop plant tolerance. The class given is in vivo. The conditions noted are these: rated after three weeks. The protocol:
as §1, §2
(§6) Seeds of the test plants are sown in normal soil. After 24 hours, the soil is sprayed with the preparation of active compound such that the particular amount of active compound desired is applied per unit area. The concentration of active compound in the spray liquor is chosen such that the particular amount of active compound desired is applied in 1000 litres of water per hectare.
(§7) After three weeks, the degree of damage to the plants is rated in % damage in comparison to the development of the untreated control. The figures denote: • 0%=no effect (like untreated control) • 100%=total destruction

The subject of series [5] is weeds. The series can be described thus: Pre-emergence test (Example A), herbicidal activity. In kind it is in vivo. The conditions noted are these: soil sprayed 24 hours after sowing, rated after three weeks. The protocol:
as §1, §2, §6, §7

Consider `CN1CCCN(Cc2c(Cl)ccc(C(=O)C3=C(Sc4ccccc4)CCCC3=O)c2Cl)C1=O` [Example 1, 1-[2,6-dichloro-3-[(6-oxo-2-phenylthio-1-cyclohexen-1-yl)-carbonyl]-benzyl]-3-methyl-tetrahydro-2(1H)-pyrimidinone], for which the melting point came to 140 °C. For the same compound, the “tolerance by crop plants” value in the series on maize [1] is “tolerated well”. For the same compound, the “tolerance by crop plants” value in the series with wheat is on record as “tolerated well”. Besides, the “activity against weeds (degree of damage)” value (from here on “activity against weeds”) with weeds [2] was “strong activity against weeds”.

Take `CN1CCN(Cc2c(Cl)ccc(C(=O)C3=C(Sc4ccccc4)CCCC3=O)c2Cl)C1=O` [Example 2]: the “tolerance by crop plants” value in the series on maize [1] and in the series with wheat was “tolerated well” in each case. Also, in series [3], the logP entry is given as “logP = 3.02^a)”. Besides, the “activity against weeds” value in the series on weeds [2] is listed as “strong activity against weeds”.

As to `CCN1CCN(Cc2c(Cl)ccc(C(=O)C3=C(Sc4ccccc4)CCCC3=O)c2Cl)C1=O` [Example 3], the logP result in series [3] is given as “logP = 3.30^a)”.

As for `CSc1nn(Cc2c(Cl)ccc(C(=O)C3=C(Sc4ccccc4)CCCC3=O)c2Cl)c(=O)n1C` [Example 4], the logP result in series [3] was “logP = 3.29^a)”.

As to `O=C1CCCC(Sc2ccccc2)=C1C(=O)c1ccc(Cl)c(Cn2nc(C3CC3)n(C3CC3)c2=O)c1Cl` [Example 5], the “tolerance by crop plants” value in the series on maize [1] and in the series with wheat was “tolerated well” in each case. Moreover, the logP result in series [3] was “logP = 3.50^a)”. Also, the “activity against weeds” value in the series on weeds [2] is on record as “strong activity against weeds”.

For `CSc1nn(Cc2c(S(C)(=O)=O)ccc(C(=O)C3=C(Sc4ccccc4)CCCC3=O)c2Cl)c(=O)n1C` [Example 6], the logP result in series [3] is listed as “logP = 2.84^a)”.

For the compound `COc1nn(Cc2c(S(C)(=O)=O)ccc(C(=O)C3=C(Sc4ccccc4)CCCC3=O)c2Cl)c(=O)n1C` [Example 7], the logP result in series [3] is “logP = 2.67^a)”.

Consider `CN1CCN(Cc2c(S(C)(=O)=O)ccc(C(=O)C3=C(Sc4ccccc4)CCCC3=O)c2Cl)C1=O` [Example 8], for which, in series [3], the logP result was “logP = 2.56^a)”.

Consider `CCN1CCN(Cc2c(S(C)(=O)=O)ccc(C(=O)C3=C(Sc4ccccc4)CCCC3=O)c2Cl)C1=O` [Example 9], for which the logP result in series [3] is “logP = 2.79^a)”.

Take `CCOn1c(CC)nn(Cc2c(S(C)(=O)=O)ccc(C(=O)C3=C(Sc4ccccc4)CCCC3=O)c2Cl)c1=O` [Example 10]: in series [3], the logP entry is on record as “logP = 3.13^a)”.

For the compound `COc1nn(Cc2c(Cl)ccc(C(=O)C3=C(Sc4ccccc4)CCCC3=O)c2Cl)c(=O)n1C` [Example 11], the logP entry in series [3] is reported as “logP = 3.06^a)”.

Consider `CC(C)Oc1nn(Cc2c(Cl)ccc(C(=O)C3=C(Sc4ccccc4)CCCC3=O)c2Cl)c(=O)n1C` [Example 12], for which the logP result in series [3] is “logP = 3.69^a)”.

On to `CN(C)c1nn(Cc2c(Cl)ccc(C(=O)C3=C(Sc4ccccc4)CCCC3=O)c2Cl)c(=O)n1C` [Example 13], for which the logP result in series [3] is recorded as “logP = 3.10^a)”.

For the compound `COc1nn(Cc2c(Cl)ccc(C(=O)C3=C(S(=O)(=O)c4ccccc4)CCCC3=O)c2Cl)c(=O)n1C` [Example 14], in series [3], the logP result is “logP = 2.62^a)”.

`CSc1nn(Cc2cc(C(F)(F)F)ccc2C(=O)C2=C(Sc3ccccc3)CCCC2=O)c(=O)n1C` [Example 16]: the “tolerance by crop plants” value with maize [1], in the series with wheat and in the series with maize [4] was “tolerated well” in each case. Also, the logP result in series [3] is given as “logP = 3.58^a)”. The “activity against weeds” value in the series on weeds [5] and in the series with weeds [2] was “strong activity against weeds” in each case.

Consider `CSC1=C(C(=O)c2ccc(C(F)(F)F)cc2Cn2nc(SC)n(C)c2=O)C(=O)CCC1` [Example 17], for which the “tolerance by crop plants” value in the series with maize [1] and in the series with wheat was “tolerated well” throughout. Further, the logP result in series [3] was “logP = 2.63^a)”. Moreover, the “activity against weeds” value in the series with weeds [2] is “strong activity against weeds”.

Take `COc1nn(Cc2cc(C(F)(F)F)ccc2C(=O)C2=C(Sc3ccccc3)CCCC2=O)c(=O)n1C` [Example 18]: the “tolerance by crop plants” value with maize [1] and with wheat was “tolerated well” in each case. The logP result in series [3] is “logP = 3.30^a)”. In the series with weeds [2], the “activity against weeds” value was “strong activity against weeds”.

Take `COc1nn(Cc2cc(C(F)(F)F)ccc2C(=O)C2=C(SC)CCCC2=O)c(=O)n1C` [Example 19]: the “tolerance by crop plants” value in the series with maize [1] and in the series on wheat was “tolerated well” each time. Further, the logP entry in series [3] was “logP = 2.41^a)”. In the series on weeds [2], the “activity against weeds” value is “strong activity against weeds”.

In the case of `CCCCN1CCN(Cc2c(Cl)ccc(C(=O)C3=C(Sc4ccccc4)CCCC3=O)c2Cl)C1=O` [Example 120], the logP result in series [3] is on record as “logP = 4.02^a)”.

Turning to `CC(C)CN1CCN(Cc2c(Cl)ccc(C(=O)C3=C(Sc4ccccc4)CCCC3=O)c2Cl)C1=O` [Example 121], in series [3], the logP result is reported as “logP = 3.98^a)”.

The values are drawn from patent US6969697B2, “Substituted benzoylcyclohexenones” (Bayer Aktiengesellschaft, priority 2000, dated 2005).
